# Experimental data reported in patent US20260345596A1, “TREATMENT OF LOCALLY ADVANCED OR METASTATIC UROTHELIAL CARCINOMA WITH ERDAFINITIB” (priority 2023, published 2026).
# Several values for one entry are separate records, joined by “and”; a condition that tells them apart may be missing. Equal values may be shown once. Marks after values point to notes of the source that are not given here.
# Assay: Study BLC3001 (NCT03390504, THOR) Cohort 1: safety, adverse events, laboratory abnormalities and exposure
# [1] = adverse events leading to death
# [2] = any grade, adverse events of interest
# [3] = any grade, serious adverse events, any cause
# [4] = grade 3-4 adverse events of interest
# [5] = leading to treatment discontinuation
smiles,measurement,setting,value
"COc1cc(OC)cc(N(CCNC(C)C)c2ccc3ncc(-c4cnn(C)c4)nc3c2)c1 [Erdafitinib, N-(3,5-dimethoxyphenyl)-N′-(1-methylethyl)-N-[3-(1-methyl-1H-pyrazol-4-yl)quinoxalin-6-yl]ethane-1,2-diamine]",Aspartate aminotransferase increased,"Grade ≥3, treatment-related",2 (1.5) no. (%)
same,Asthenia,"Grade ≥3, treatment-related",0 no. (%)
same,Constipation,"Grade ≥3, treatment-related",0 no. (%)
same,Decreased appetite,"Grade ≥3, treatment-related",3 (2.2) no. (%)
same,Diarrhea,"Grade ≥3, treatment-related",4 (3.0) no. (%)
same,Dry eye,"Grade ≥3, treatment-related",0 no. (%)
same,Dry mouth,"Grade ≥3, treatment-related",0 no. (%)
same,Dry skin,"Grade ≥3, treatment-related",2 (1.5) no. (%)
same,Dysgeusia,"Grade ≥3, treatment-related",1 (0.7) no. (%)
same,Fatigue,"Grade ≥3, treatment-related",0 no. (%)
same,Hyperphosphatemia,"Grade ≥3, treatment-related",7 (5.2) no. (%)
same,Nausea,"Grade ≥3, treatment-related",1 (0.7) no. (%)
same,Neutropenia,"Grade ≥3, treatment-related",0 no. (%)
same,Onycholysis,"Grade ≥3, treatment-related",8 (5.9) no. (%)
same,Onychomadesis,"Grade ≥3, treatment-related",2 (1.5) no. (%)
same,Palmar-plantar erythrodysesthesia syndrome,"Grade ≥3, treatment-related",13 (9.6) no. (%)
same,Stomatitis,"Grade ≥3, treatment-related",11 (8.1) no. (%)
same,Atypical pneumonia,[1],0 no. (%)
same,Cardiorespiratory arrest,[1],1 (0.7) no. (%)
same,Febrile bone marrow aplasia,[1],0 no. (%)
same,Febrile neutropenia,[1],0 no. (%)
same,Pneumonia necrotizing,[1],1 (0.7) no. (%)
same,Renal failure,[1],1 (0.7) no. (%)
same,Septic shock,[1],0 no. (%)
same,Sudden death,[1],2 (1.5) no. (%)
same,Adverse events leading to treatment discontinuation,any cause,19 (14.1%) no. (%) and 19 (14.1) no. (%)
same,Central serous retinopathy,any grade,23 (17.0%) n (%) and 23 (17.0) n (%)
same,Eye disorders (excluding central serous retinopathy),any grade,57 (42.2) n (%)
same,Nail disorders,any grade,90 (66.7) n (%)
same,Skin disorders,any grade,74 (54.8) n (%)
same,Central serous retinopathy,[2],23 (17.0) no. (%)
same,Chorioretinopathy,[2],8 (5.9) no. (%)
same,Detachment of macular retinal pigment epithelium,[2],1 (0.7) no. (%)
same,Detachment of retinal pigment epithelium,[2],7 (5.2) no. (%)
same,Eye disorders (excluding central serous retinopathy),[2],57 (42.2) no. (%)
same,Macular detachment,[2],2 (1.5) no. (%)
same,Nail disorders,[2],90 (66.7) no. (%)
same,Retinopathy,[2],2 (1.5) no. (%)
same,Skin disorders,[2],74 (54.8) no. (%)
same,Subretinal fluid,[2],5 (3.7) no. (%)
same,Hematuria,[3],5 (3.7) no. (%)
same,Hyponatremia,[3],3 (2.2) no. (%)
same,Urinary tract infection,[3],6 (4.4) no. (%)
same,Neutropenia,"any grade, treatment-emergent",0 no.
same,Alanine aminotransferase increased,"any grade, treatment-related",29 (21.5) no. (%)
same,Alopecia,"any grade, treatment-related",32 (23.7) no. (%)
same,Anemia,"any grade, treatment-related",16 (11.9) no. (%)
same,Aspartate aminotransferase increased,"any grade, treatment-related",25 (18.5) no. (%)
same,Asthenia,"any grade, treatment-related",11 (8.1) no. (%)
same,Constipation,"any grade, treatment-related",12 (8.9) no. (%)
same,Decreased appetite,"any grade, treatment-related",28 (20.7) no. (%)
same,Diarrhea,"any grade, treatment-related",74 (54.8) no. (%)
same,Dry eye,"any grade, treatment-related",22 (16.3) no. (%)
same,Dry mouth,"any grade, treatment-related",52 (38.5) no. (%)
same,Dry skin,"any grade, treatment-related",30 (22.2) no. (%)
same,Dysgeusia,"any grade, treatment-related",34 (25.2) no. (%)
same,Fatigue,"any grade, treatment-related",18 (13.3) no. (%)
same,Hyperphosphatemia,"any grade, treatment-related",106 (78.5) no. (%)
same,Nausea,"any grade, treatment-related",14 (10.4) no. (%)
same,Neutropenia,"any grade, treatment-related",0 no. (%)
same,Onycholysis,"any grade, treatment-related",31 (23.0) no. (%)
same,Onychomadesis,"any grade, treatment-related",27 (20.0) no. (%)
same,Palmar-plantar erythrodysesthesia syndrome,"any grade, treatment-related",41 (30.4) no. (%)
same,Stomatitis,"any grade, treatment-related",62 (45.9) no. (%)
same,Treatment-related deaths,count,1
same,Central serous retinopathy,grade 3-4,3 (2.2) n (%)
same,Eye disorders (excluding central serous retinopathy),grade 3-4,3 (2.2) n (%)
same,Nail disorders,grade 3-4,15 (11.1) n (%)
same,Skin disorders,grade 3-4,16 (11.9) n (%)
same,Central serous retinopathy,[4],2.2%
same,Nail disorders,[4],11.1%
same,Skin disorders,[4],11.9%
same,Onycholysis,"grade ≥3, treatment-related",5.9%
same,Palmar-plantar erythrodysesthesia syndrome,"grade ≥3, treatment-related",9.6%
same,Stomatitis,"grade ≥3, treatment-related",8.1%
same,Treatment-emergent adverse events that led to death,in vivo,4.4%
same,Treatment-related serious adverse events,in vivo,13.3%
same,Treatment-related adverse events that led to death,investigator-assessed,0.7%
same,Anemia,[5],0 no. (%)
same,Any patient with one or more adverse events leading to treatment discontinuation,[5],19 (14.1) no. (%)
same,Atypical pneumonia,[5],0 no. (%)
same,COVID-19,[5],1 (0.7) no. (%)
same,Cardiorespiratory arrest,[5],1 (0.7) no. (%)
same,Detachment of retinal pigment epithelium,[5],1 (0.7) no. (%)
same,Diarrhea,[5],0 no. (%)
same,Dry skin,[5],1 (0.7) no. (%)
same,Dysphagia,[5],1 (0.7) no. (%)
same,Dyspnea,[5],0 no. (%)
same,Edema peripheral,[5],0 no. (%)
same,Extremity necrosis,[5],1 (0.7) no. (%)
same,Febrile bone marrow aplasia,[5],0 no. (%)
same,Febrile neutropenia,[5],0 no. (%)
same,Fractured sacrum,[5],0 no. (%)
same,Hematuria,[5],1 (0.7) no. (%)
same,Hyponatremia,[5],0 no. (%)
same,Hypotension,[5],1 (0.7) no. (%)
same,Ileus,[5],0 no. (%)
same,Keratitis,[5],1 (0.7) no. (%)
same,Nail dystrophy,[5],1 (0.7) no. (%)
same,Onycholysis,[5],2 (1.5) no. (%)
same,Paronychia,[5],1 (0.7) no. (%)
same,Peripheral sensory neuropathy,[5],0 no. (%)
same,Pneumonia necrotizing,[5],1 (0.7) no. (%)
same,Pneumonitis,[5],0 no. (%)
same,Renal failure,[5],1 (0.7) no. (%)
same,Sciatica,[5],0 no. (%)
same,Septic shock,[5],0 no. (%)
same,Sudden death,[5],2 (1.5) no. (%)
same,Syncope,[5],0 no. (%)
same,Urinary retention,[5],1 (0.7) no. (%)
same,Vision blurred,[5],1 (0.7) no. (%)
same,Vomiting,[5],0 no. (%)
same,Adverse events leading to dose interruption,safety population,97 (71.9) no. (%)
same,Adverse events leading to dose reduction,safety population,93 (68.9) no. (%)
same,Adverse events of any cause,safety population,98.5%
same,Any adverse events (treatment-emergent),safety population,133 (98.5%) no. (%) and 133 (98.5) no. (%)
same,COVID-19-related adverse events,safety population,12 (8.9) no. (%)
same,COVID-19-related serious adverse events,safety population,1 (0.7) no. (%)
same,Grade 3-4 serious adverse events,safety population,52 (38.5) no. (%)
same,Grade 3-4 treatment-related adverse events,safety population,45.9%
same,"Related adverse events (≥1 treatment-related AE, any grade)",safety population,131 (97.0) no. (%)
same,Related adverse events leading to death,safety population,1 (0.7) no. (%)
same,Related adverse events leading to dose interruption,safety population,89 (65.9) no. (%)
same,Related adverse events leading to dose reduction,safety population,89 (65.9) no. (%)
same,Related adverse events leading to treatment discontinuation,safety population,11 (8.1%)^b no. (%) and 11 (8.1) no. (%)
same,Related grade 3-4 adverse events,safety population,62 (45.9) no. (%)
same,Related grade 3-4 serious adverse events,safety population,16 (11.9) no. (%)
same,Related serious adverse events,safety population,18 (13.3) no. (%)
same,Adverse events leading to death,treatment-emergent,6 (4.4%) no. (%) and 6 (4.4) no. (%)
same,Grade 3-4 adverse events,treatment-emergent,85 (63.0%) no. (%) and 85 (63.0) no. (%)
same,Serious adverse events,treatment-emergent,56 (41.5%) no. (%) and 56 (41.5) no. (%)
same,Clinically important TEAEs,"treatment-emergent, any grade",125 (92.6%) n (%)
same,Eye disorders leading to discontinuation,treatment-related AEs,^bMost frequent treatment-related AEs leading to discontinuation of erdafitinib included eye disorders (3 patients) and skin and subcutaneous disorders (3 patients).
same,Diarrhea,"treatment-related, any grade",74 (54.8) n (%)
same,Dry mouth,"treatment-related, any grade",52 (38.5) n (%)
same,Hyperphosphatemia,"treatment-related, any grade",106 (78.5) n (%)
same,Onycholysis,"treatment-related, any grade",31 (23.0) n (%)
same,PPE syndrome,"treatment-related, any grade",41 (30.4) n (%)
same,Stomatitis,"treatment-related, any grade",62 (45.9) n (%)
same,Diarrhea,"treatment-related, grade 3-4",4 (3.0) n (%)
same,Dry mouth,"treatment-related, grade 3-4",0 n (%)
same,Hyperphosphatemia,"treatment-related, grade 3-4",7 (5.2) n (%)
same,Onycholysis,"treatment-related, grade 3-4",8 (5.9) n (%)
same,PPE syndrome,"treatment-related, grade 3-4",13 (9.6) n (%)
same,Stomatitis,"treatment-related, grade 3-4",11 (8.1) n (%)
same,Lowering of discontinuation due to treatment-related adverse events,versus chemotherapy,about 5.3%
